Source: patent publication US20240407315A1, “PLANT DISEASE […] METHOD, PLANT DISEASE […] DEVICE, AND PLANT DISEASE […] AGENT” (TOHOKU UNIVERSITY, priority 2021, published 2024)

Assays:
[1] = system: Ca^2+ signals (calcium ion response); assay: Live GFP fluorescence imaging of Ca^2+ signals in GCaMP-expressing plants after gas exposure; format: in vivo, Arabidopsis thaliana; conditions: about 200 ppm or lower, 10 seconds
Excerpt: An experiment was implemented, in which a plant was exposed to dinitrogen pentoxide to confirm induction of Ca^2+ signals (calcium ion response) as information of injuries similar to insect damages or physical injuries, using the plant disease resistance inducing device 10 illustrated in FIG. 1.
First, Ca^2+ signals that had appeared by exposing the whole body of Arabidopsis thaliana to dinitrogen pentoxide were observed. In the experiment, the concentration of dinitrogen pentoxide in the gas for the exposure was set to about 200 ppm or lower, and the exposure time was set to 10 seconds. For comparison, Ca^2+ signals that had appeared by exposing the whole body of Arabidopsis thaliana to dry air were also observed under the same condition. FIG. 2 presents states of Arabidopsis thaliana before the exposure, and states of the Ca^2+ signals 60 seconds after the termination of the exposure.
Next, Ca^2+ signals that had appeared by exposing one leaf of Arabidopsis thaliana to dinitrogen pentoxide were observed. In the experiment, only one leaf of Arabidopsis thaliana (leaf surrounded by dotted line in FIG. 3(a)) was exposed to dinitrogen pentoxide. The concentration of dinitrogen pentoxide in the gas for the exposure was set to about 200 ppm or lower, and the exposure time was set to 10 seconds.

[2] = system: PDF1.2, ORA59, PAD3, CYP71A12, NIT2, and WRKY26; assay: RNA sequencing (RNA-seq) gene expression analysis after gas exposure; format: in vivo, Arabidopsis thaliana
Procedure: A plant was exposed to dinitrogen pentoxide using the plant disease resistance inducing device 10 illustrated in FIG. 1, and a gene expression was analyzed by RNA sequencing (RNA-seq) and quantitative real-time PCR (qRT-PCR). In the RNA-seq analysis, Arabidopsis thaliana at 5 week of seeding was exposed to dinitrogen pentoxide once a day for 3 days. In each exposure, Arabidopsis thaliana was exposed to dinitrogen pentoxide from a distance of 5 cm for 20 seconds. A concentration of dinitrogen pentoxide in the gas for the exposure was set to about 200 ppm or lower. Twenty-four hours after the last exposure, leaves that had fully developed were collected, from which the total RNA was extracted, followed by RNA-seq analysis. For comparison, as a control plot, a leaf exposed to dry air under the same condition was also subjected to the RNA-seq analysis.
Genes with expression levels not less than twice as high as that of the control plot, induced by the dinitrogen pentoxide exposure, and genes with reduced expression levels not more than half as high as that of the control plot were extracted. As a result, 1304 genes with twice or more of induced expression levels, and 1209 genes with expression levels reduced to half or less were found.
Based on the result of the RNA-seq, six genes: PDF1.2, ORA59, PAD3, CYP71A12, NIT2, and WRKY26, were selected as candidate marker genes for the dinitrogen pentoxide exposure. Herein, PDF1.2 is an antimicrobial peptide gene and is often used as a marker gene for jasmonic acid and ethylene. ORA59 is a gene related to regulation of PDF1.2 expression. PAD3 is a gene related to biosynthesis of an antimicrobial substance camalexin, which is synthesized and induced by jasmonic acid. CYP71A12 is a gene related to a tryptophan metabolism at an upstream of PAD3. NIT2 is a gene related to biosynthesis of auxin that is another plant hormone derived from tryptophan. WRKY26 is a gene which, as is known, functionally overlaps with a transcription factor WRKY33 that regulates jasmonic acid signals.

[3] = system: PDF1.2, ORA59, PAD3, CYP71A12, NIT2, and WRKY26; assay: qRT-PCR time course of marker gene expression relative to ACT2 gene; format: in vivo, Arabidopsis thaliana; conditions: single 20 seconds exposure from 5 cm
Procedure: Subsequently, the expression of each of the selected genes was analyzed by qRT-PCR. In the qRT-PCR, Arabidopsis thaliana at 5 week of seeding was exposed to dinitrogen pentoxide from a distance of 5 cm for 20 seconds. The dinitrogen pentoxide exposure was conducted only once. The whole above-ground part was sampled 1, 3, 6, 12, 24, and 48 hours after the exposure, from which the total RNA was extracted and then subjected to qRT-PCR. Using ACT2 gene as a control for endogenous genes, an expression level of each gene was determined as a value relative to the ACT2 gene expression level (Relative expression to ACT2 gene).
For comparison, time-dependent changes in the expression levels of each gene in Arabidopsis thaliana exposed to dry air under the same condition were also determined, and the results are presented in FIG. 5. For the experiment, three independent individuals were used, and the mean values and standard deviations of the three individuals are presented in FIG. 5. The same experiment was conducted twice independently, and the same results were obtained.

[4] = system: cucumber mosaic virus (CMV) Macula lutea strain; assay: Suppression of viral growth: ELISA of virus coat protein in inoculated leaves; format: in vivo; conditions: Arabidopsis thaliana, 20 seconds once a day for 3 days, about 200 ppm or lower; inoculated 24 hours after last exposure; measured 2 days after inoculation
Excerpt: A plant was exposed to dinitrogen pentoxide using the plant disease resistance inducing device 10 illustrated in FIG. 1, and subjected to an experiment for examining an effect of suppressing viral growth. In the experiment, Arabidopsis thaliana at 5 week of seeding was exposed to dinitrogen pentoxide once a day for 3 days. In each exposure, Arabidopsis thaliana was exposed to dinitrogen pentoxide from a distance of 5 cm for 20 seconds. A concentration of dinitrogen pentoxide in the gas for the exposure was set to about 200 ppm or lower. Twenty-four hours after the last exposure, leaves that had fully developed were inoculated with a cucumber mosaic virus (CMV) Macula lutea strain by a friction inoculation method. Two days after the CMV inoculation, viral loads in the inoculated leaves were quantitatively measured by Enzyme-Linked Immuno Sorbent Assay (ELISA) method using an anti-CMV coat protein antibody.
For comparison, virus loads of Arabidopsis thaliana exposed to dry air and inoculated with CMV under the same condition, and Arabidopsis thaliana exposed to dry air and not inoculated with CMV (Mock) under the same condition were also quantitatively measured, and the results are presented in FIG. 6. For the experiment, six independent individuals were used, and the mean values and standard deviations of the six individuals are presented in FIG. 6. […]

[5] = system: Arabidopsis thaliana; assay: Observation of leaf damage after gas exposure; format: in vivo; conditions: immediately after exposure and the next day
[6] = 20 seconds once a day for 3 days, about 200 ppm or lower, leaves 24 hours after last exposure

Row | SMILES | time to activation of the Ca^2+ signals in the leaf directly exposed ([1]; one leaf exposed) | spread of Ca^2+ signals after exposure of one leaf ([1]; one leaf exposed, observed up to 6 minutes) | generation of Ca^2+ signals over the plant body ([1]; whole body exposed) | Ca^2+ signals after whole-body exposure ([1]; whole body exposed, observed 60 seconds after exposure, dry air gave no signals) | gene ontology analysis result ([2]; 20 seconds once a day for 3 days, about 200 ppm or lower) | number of genes with expression levels reduced to half or less vs control plot [2, 6] [genes] | number of genes with twice or more of induced expression levels vs control plot [2, 6] [genes] | At-N2O5-_TPM ([2]; gene CYP71A12, control 0.000000) [TPM] | At-N2O5-_TPM ([2]; gene NIT2, control 0.000000) [TPM] | At-N2O5-_TPM ([2]; gene ORA59, control 0.074135) [TPM] | At-N2O5-_TPM ([2]; gene PAD3, control 0.312642) [TPM] | At-N2O5-_TPM ([2]; gene WRKY26, control 0.035706) [TPM] | time after exposure from which ODR59 expression was induced [3] [h] | time after exposure from which PDF1.2 expression was induced [3] [h] | time of peak of transiently induced NIT2 expression [3] [h] | time until which high ODR59 expression level was maintained [3] [h] | time until which high PDF1.2 expression level was maintained [3] | CMV growth (accumulation of virus coat protein) compared to dry air exposure [4] | state of leaves after exposure [5]
1 | O=[N+]([O-])O[N+](=O)[O-] [dinitrogen pentoxide] | about 20 seconds | spread to all leaves in the whole body through sieve tubes | slowly generated over the whole body | Ca^2+ signals were observed | jasmonic acid signals were activated | 1209 | 1304 | 0.797 | 1.917 | 2.341 | 1.293 | 0.7565 | 1 | 6 | 12 | 48 | at least 48 hours | significantly suppressed | not to curl up but to grow without withering
2 | O=[O+][O-] [ozone, reference compound] | – | – | – | – | – | – | – | – | – | – | – | – | – | – | – | – | – | – | curl up immediately after the ozone exposure and wither the next day
